In paper PMC9226319, “Peripherally restricted transthyretin-based delivery system for probes and therapeutics avoiding opioid-related side effects” (Nature Communications, 2022):
“And” between values parts separate entries of the source, which are not always exact repeats. Identical values can stand only once. Like-named read-outs stand apart in the source and are kept apart here.

Assays:
purified human TTR = purified human TTR (Homo sapiens, UniProt P02766); test: Fluorescence polarization (FP) binding assay, ligands to TTR in buffer
[1] = target: T1, delta-opioid receptor (human) (Homo sapiens, UniProt P41143); test: Human delta-opioid receptor (agonist radioligand [3H]-DADLE) binding assay; details: for % Inhibition of Control Specific Binding: delta-opioid receptor binding, replicates 1st/2nd
T1 construct: Eurofins Cerep (France)

male Sprague-Dawley rats [2] = test: Gastrointestinal (GI) transit (charcoal meal) assays; assay type: in vivo, rat; details: rat, in vivo
in vivo = details: male, Sprague Dawley, rat, iv
[3] = rat; for plasma concentration: individual animals
[4] = target: T2, kappa opioid receptor (rat) (Rattus norvegicus, UniProt P34975); test: Rat kappa-opioid receptor (agonist radioligand [3H] U 69593) binding assay; details: for % Inhibition of Control Specific Binding: kappa-opioid receptor binding, replicates 1st/2nd
T2 construct: Eurofins Cerep (France)

in vitro = details: human, % Cell viability, replicates
male Sprague-Dawley rats [5] = details: rat, in vivo
TTR in human serum = TTR in human serum (Homo sapiens, UniProt P02766); test: TTR serum fluorescent probe exclusion (FPE) selectivity assay; assay type: binding; details: ligand 10 µM; for %FPE probe fluorescence: human serum, replicates
[6] = target: human mu-opioid receptors (Homo sapiens, UniProt P35372); test: biochemical; assay type: biochemical; parameters: host or cells: CHO-K1 (Chinese hamster ovary), membrane preparation
Chain of human mu-opioid receptors (P35372 whole entry): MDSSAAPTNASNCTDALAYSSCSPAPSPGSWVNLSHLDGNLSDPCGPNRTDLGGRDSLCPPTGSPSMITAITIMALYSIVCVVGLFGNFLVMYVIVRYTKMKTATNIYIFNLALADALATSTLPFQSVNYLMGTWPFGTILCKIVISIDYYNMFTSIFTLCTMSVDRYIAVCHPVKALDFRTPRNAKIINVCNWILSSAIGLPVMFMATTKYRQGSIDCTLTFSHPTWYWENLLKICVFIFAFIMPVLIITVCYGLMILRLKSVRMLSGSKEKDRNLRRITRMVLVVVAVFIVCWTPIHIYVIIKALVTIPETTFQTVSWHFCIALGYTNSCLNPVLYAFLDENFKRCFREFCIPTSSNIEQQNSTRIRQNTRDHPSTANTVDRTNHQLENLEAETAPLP

T1 sequence (P41143 whole entry): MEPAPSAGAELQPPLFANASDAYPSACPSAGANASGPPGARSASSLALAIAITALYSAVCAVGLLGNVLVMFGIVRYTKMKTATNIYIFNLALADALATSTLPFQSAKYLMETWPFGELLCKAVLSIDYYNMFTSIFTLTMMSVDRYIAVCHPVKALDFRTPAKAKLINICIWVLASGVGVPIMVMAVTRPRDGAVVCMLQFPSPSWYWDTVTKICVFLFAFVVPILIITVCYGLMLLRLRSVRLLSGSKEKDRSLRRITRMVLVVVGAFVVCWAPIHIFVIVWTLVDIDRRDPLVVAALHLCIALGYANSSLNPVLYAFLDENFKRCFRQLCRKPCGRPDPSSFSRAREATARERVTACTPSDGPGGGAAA
T2 sequence (P34975 whole entry): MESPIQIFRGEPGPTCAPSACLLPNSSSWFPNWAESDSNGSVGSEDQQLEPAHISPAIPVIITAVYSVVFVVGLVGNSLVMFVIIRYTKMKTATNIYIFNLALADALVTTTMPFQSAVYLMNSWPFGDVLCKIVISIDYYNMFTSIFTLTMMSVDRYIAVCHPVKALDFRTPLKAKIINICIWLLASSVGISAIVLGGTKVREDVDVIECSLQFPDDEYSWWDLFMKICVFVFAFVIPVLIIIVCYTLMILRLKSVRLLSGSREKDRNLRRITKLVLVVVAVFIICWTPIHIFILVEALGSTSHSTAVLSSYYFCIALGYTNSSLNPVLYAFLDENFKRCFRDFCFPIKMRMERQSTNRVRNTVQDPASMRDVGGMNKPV

With `C=CCN1CC[C@]23c4c5ccc(O)c4O[C@H]2[C@@H](OCc2cn(CCNCCCCCCOc4cc(OCCCc6c(C)n[nH]c6C)cc(C(=O)O)c4)nn2)CC[C@@]3(O)[C@H]1C5` [AG10-L2-Nal] the Kd (purified human TTR) was 333 nM, the “% Fluorescence polarization (mean)” value (purified human TTR; log [nM] inhibitor 0.990) was 100.000% and the “% Fluorescence polarization (mean)” value (purified human TTR; log [nM] inhibitor 1.291) was 106.646%. The “% Fluorescence polarization (mean)” value (purified human TTR; log [nM] inhibitor 1.592) was 105.531%, the “% Fluorescence polarization (mean)” value (purified human TTR; log [nM] inhibitor 1.893) was 103.770% and the “% Fluorescence polarization (mean)” value (purified human TTR; log [nM] inhibitor 2.194) was 97.021%. The “% Fluorescence polarization (mean)” value (purified human TTR; log [nM] inhibitor 2.495) was 90.708%, the “% Fluorescence polarization (mean)” value (purified human TTR; log [nM] inhibitor 2.796) was 79.479% and the “% Fluorescence polarization (mean)” value (purified human TTR; log [nM] inhibitor 3.097) was 54.083%. The “% Fluorescence polarization (mean)” value (purified human TTR; log [nM] inhibitor 3.398) was 38.835%, the “% Fluorescence polarization (mean)” value (purified human TTR; log [nM] inhibitor 3.699) was 31.550% and the “% Fluorescence polarization (mean)” value (purified human TTR; log [nM] inhibitor 4.000) was 21.649%. For the same compound, the “% Fluorescence polarization (mean)” value (purified human TTR; log [nM] inhibitor […]) was 0.000%, the Ki ([1]; [3H]-DADLE displacement, read-out: binding affinity to delta-opioid receptor (Ki)) was 5.5 nM and the “% Inhibition of Control Specific Binding” value ([1]; 1.0E-07 M) was 91.6% and 94.2%. For the same compound, the “% Inhibition of Control Specific Binding” value ([1]; 1.0E-08 M) was 53.9% and 52.4%, the “% Inhibition of Control Specific Binding” value ([1]; 1.0E-09 M) was 14.6% and 12.2% and the “% Inhibition of Control Specific Binding” value ([1]; 1.0E-10 M) was 2.7% and 9.1%. The “% Inhibition of Control Specific Binding” value ([1]; 5.0E-08 M) was 83.7% and 87.4%, the “GI transit 2.5h as % of saline group” value (male Sprague-Dawley rats [2]) was 45.3% and 46.0% and 49.8% and 55.5% and 53.6% and 48.3% and the “reversal of OIC in the presence of AG10” value (male Sprague-Dawley rats [2]) was “no improvement in the OIC”. The “GI transit as % of vehicle group, compound alone” value (male Sprague-Dawley rats [2]; sc) was 95.27% and 87.87% and 102.14% and 105.69% and 102.69%, the AUC(0-inf) (in vivo; 4.84 umol/kg) was 16.9 ± 1.09 µM·h and the Vd (in vivo; 4.84 umol/kg) was 0.12 ± 0.02 L/kg. The clearance (in vivo; 4.84 umol/kg) was 4.83 mL/min/kg, the half-life (in vivo; 4.84 umol/kg) was 5.98 ± 0.81 h and the concentration at 0.03 h (in vivo; 4.84 µmol/kg, plasma concentration, IV 4.84 µmol/kg, 0.03 h, individual animals) was 48800 nM. It also gave a concentration at 1 h (in vivo; 4.84 µmol/kg, plasma concentration, IV 4.84 µmol/kg, 1 h, individual animals) of 295 nM, a concentration at 2 h (in vivo; 4.84 µmol/kg, plasma concentration, IV 4.84 µmol/kg, 2 h, individual animals) of 234 nM and a concentration at 12 h (in vivo; 4.84 µmol/kg, plasma concentration, IV 4.84 µmol/kg, 12 h, individual animals) of 9.6 nM. For the same compound, the “fold higher AUCinf than naloxegol” value ([3]; IV 4.84 µmol/kg) was about 23 fold, the “fold higher AUCinf than naloxone” value ([3]; IV 4.84 µmol/kg) was about 12 fold and the “fold increase in half-life compared to naloxegol” value ([3]; IV 4.84 µmol/kg) was 3.5 fold. For the same compound, the “fold increase in half-life compared to naloxone” value ([3]; IV 4.84 µmol/kg) was 7 fold, the plasma concentration ([3]; IV 4.84 µmol/kg, 0.03 h) was 57263.9 nM and 57506.1 nM and the plasma concentration ([3]; IV 4.84 µmol/kg, 0.5 h) was 2941.9 nM and 1319.6 nM and 2239.7 nM. The plasma concentration ([3]; IV 4.84 µmol/kg, 1 h) was 296.6 nM and 441.9 nM, the plasma concentration ([3]; IV 4.84 µmol/kg, 2 h) was 155 nM and 181.6 nM and the plasma concentration ([3]; IV 4.84 µmol/kg, 4 h) was 92.9 nM and 28.6 nM and 125.9 nM. For the same compound, the plasma concentration ([3]; IV 4.84 µmol/kg, 6 h) was 75.2 nM and 37 nM and 51.6 nM, the plasma concentration ([3]; IV 4.84 µmol/kg, 8 h) was 23 nM and 56.2 nM and 25.7 nM and the plasma concentration ([3]; IV 4.84 µmol/kg, 12 h) was 14.4 nM and 12 nM. The plasma concentration ([3]; IV 4.84 µmol/kg, 24 h) was 3.4 nM and 7.2 nM and 2.7 nM, the k ([3]; single IV bolus 4.84 µmol/kg) was 0.12 ± 0.02 h⁻¹ and the Ki ([4]; [3H] U 69593 displacement, read-out: binding affinity to kappa-opioid receptor (Ki)) was 0.12 nM. The “% Inhibition of Control Specific Binding” value ([4]; 1.0E-07 M) was 98.2% and 98.6%, the “% Inhibition of Control Specific Binding” value ([4]; 1.0E-08 M) was 96.0% and the “% Inhibition of Control Specific Binding” value ([4]; 1.0E-09 M) was 83.2% and 82.8%. The “% Inhibition of Control Specific Binding” value ([4]; 1.0E-10 M) was 41.5% and 28.1%, the “% Inhibition of Control Specific Binding” value ([4]; 5.0E-08 M) was 98.3% and 97.6% and the viability at 72 h, 10 µM (in vitro; 10 μM) was 102%. The viability at 72 h, 100 µM (in vitro; 100 μM) was 112%, the plasma concentration (male Sprague-Dawley rats [5]; male, Sprague-Dawley) was 7600 ± 500 nM and the Hot plate latency (male Sprague-Dawley rats [5]) was 60 s. For the same compound, the hot plate latency (male Sprague-Dawley rats [5]) was “significant analgesia”, the “reversal of morphine-induced analgesia in the presence of AG10” value (male Sprague-Dawley rats [5]) was “no reversal of analgesia” and the hot plate latency (male Sprague-Dawley rats [5]; iv) was 60 s. For the same compound, the “% TTR occupancy in human serum” value (TTR in human serum; FPE probe 3.6 µM, 3 h reading relative to probe alone, text mean ± s.d., table replicates) was 62.5 ± 1.1% and 62.04% and 62.07% and 64.05% and 61.92%, the “%FPE probe fluorescence” value (TTR in human serum; time 0.000 h) was 0.000% and the “%FPE probe fluorescence” value (TTR in human serum; time 0.083 h) was 0.018% and 0.756% and -2.232% and -2.399%. For the same compound, the “%FPE probe fluorescence” value (TTR in human serum; time 0.250 h) was -1.158% and 2.209% and 1.458% and -0.885%, the “%FPE probe fluorescence” value (TTR in human serum; time 0.500 h) was 4.241% and 3.528% and 5.089% and 2.218% and the “%FPE probe fluorescence” value (TTR in human serum; time 1.000 h) was 6.503% and 10.611% and 13.590% and 14.148%. For the same compound, the “%FPE probe fluorescence” value (TTR in human serum; time 1.250 h) was 9.009% and 13.005% and 15.989% and 16.127%, the “%FPE probe fluorescence” value (TTR in human serum; time 1.500 h) was 13.314% and 18.863% and 18.262% and 17.288% and the “%FPE probe fluorescence” value (TTR in human serum; time 1.750 h) was 17.598% and 21.285% and 22.377% and 21.648%. For the same compound, the “%FPE probe fluorescence” value (TTR in human serum; time 2.000 h) was 21.919% and 25.680% and 23.861% and 25.075%, the “%FPE probe fluorescence” value (TTR in human serum; time 2.250 h) was 26.163% and 28.876% and 26.928% and 27.418% and the “%FPE probe fluorescence” value (TTR in human serum; time 2.500 h) was 26.877% and 32.466% and 29.919% and 30.633%. The “%FPE probe fluorescence” value (TTR in human serum; time 2.750 h) was 34.129% and 34.947% and 31.920% and 33.937%, the “%FPE probe fluorescence” value (TTR in human serum; time 3.000 h) was 37.964% and 37.926% and 35.954% and 38.083% and the “%FPE probe fluorescence” value (TTR in human serum; time 3.500 h) was 44.335% and 44.718% and 41.995% and 45.800%. For the same compound, the “%FPE probe fluorescence” value (TTR in human serum; time 3.750 h) was 47.041% and 46.124% and 44.395% and 46.344%, the “%FPE probe fluorescence” value (TTR in human serum; time 4.000 h) was 49.775% and 49.574% and 47.863% and 50.648% and the “%FPE probe fluorescence” value (TTR in human serum; time 4.250 h) was 49.252% and 50.428% and 49.751% and 51.967%. For the same compound, the “%FPE probe fluorescence” value (TTR in human serum; time 4.500 h) was 53.631% and 53.865% and 52.939% and 52.730%, the “%FPE probe fluorescence” value (TTR in human serum; time 4.750 h) was 56.220% and 54.908% and 55.174% and 55.874% and the “%FPE probe fluorescence” value (TTR in human serum; time 5.000 h) was 57.139% and 56.055% and 53.820% and 57.315%. The “%FPE probe fluorescence” value (TTR in human serum; time 5.250 h) was 59.200% and 60.014% and 56.004% and 59.143%, the “%FPE probe fluorescence” value (TTR in human serum; time 5.500 h) was 60.336% and 59.246% and 59.233% and 60.795% and the “%FPE probe fluorescence” value (TTR in human serum; time 5.750 h) was 61.971% and 60.994% and 58.022% and 62.173%. The “%FPE probe fluorescence” value (TTR in human serum; time 6.000 h) was 64.344% and 63.419% and 61.650% and 63.934%, the IC50 [6] was 7.5 nM and the Kb [6] was 0.81 nM. The “agonism relative to DAMGO” value [6] was 2%, the “fold increase of morphine EC50” value [6] was 950 fold and the “fold more potent than naloxegol in functional assay” value [6] was 10 fold.
